EP3283473B1, “GHRELIN O-ACYL TRANSFERASE INHIBITORS” (Eli Lilly and Company, priority 2015, dated 2016)

Biological target: T1, GOAT enzyme (Mus musculus, UniProt P0C7A3)
T1 construct: from tissue; host or cells: living male C57BL/6 mice (endogenous enzyme)
T1 sequence (P0C7A3 1-435): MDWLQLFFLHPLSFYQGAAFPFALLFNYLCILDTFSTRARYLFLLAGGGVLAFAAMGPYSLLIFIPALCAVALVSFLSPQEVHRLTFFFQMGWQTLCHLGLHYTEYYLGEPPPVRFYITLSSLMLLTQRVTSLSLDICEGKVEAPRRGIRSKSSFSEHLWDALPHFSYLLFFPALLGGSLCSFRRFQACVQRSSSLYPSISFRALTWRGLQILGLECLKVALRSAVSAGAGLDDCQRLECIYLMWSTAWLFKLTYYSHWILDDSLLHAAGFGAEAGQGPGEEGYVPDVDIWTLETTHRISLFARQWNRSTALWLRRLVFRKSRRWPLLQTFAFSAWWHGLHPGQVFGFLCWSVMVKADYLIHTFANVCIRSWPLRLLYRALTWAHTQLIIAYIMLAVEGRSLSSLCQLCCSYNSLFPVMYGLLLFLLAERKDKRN
Experiment: In vivo dose dependent 3 day BID study for GOAT inhibitor (plasma AG and UAG by ELISA)
Design: species or system male C57BL/6 mice
Conditions: for decreases plasma AG / increases UAG: administration for 3 days; for decreases plasma AG / increases UAG / AG (% of control) / AG/total-ghrelin (% of vehicle control) / UAG (% of vehicle control): mice; for reduction in AG to total ghrelin ratio: compared to vehicle-treated control animals; for AG (% of control) / AG/total-ghrelin (% of vehicle control) / UAG (% of vehicle control): oral gavage BID, 3 days, plasma
Protocol: Comparing the change in the ratio of AG to total ghrelin in the compound treated group and that of the vehicle treated group reflects the degree of GOAT enzyme inhibition in vivo, due to the dynamic processing of UAG to AG by the GOAT enzyme. In the in vivo pharmacodynamic studies herein, the levels of AG and UAG in plasma and stomach in the vehicle and compound treated groups are measured by ELISA specifically to these two analytes. The total ghrelin level of each sample is computed as the sum of AG and UAG by these ELISA measurements. The ratio of AG to total ghrelin is defined by the level of AG in each sample divided by the level of total ghrelin in the same sample. The levels of AG, UAG and ratio of AG to total ghrelin in the vehicle treated group is computed and set as 100%. The relative change of these parameters in the compound treated group is then computed to determine the effectiveness of the test compound.
Purchase male C57BL/6 mice from Harlan (Indianapolis, IN) at 9 weeks of age. House the mice individually in a temperature-controlled (24 °C) facility with a 12 hours light/dark cycle (lights on 2200 h), and allow free access to a standard rodent chow (diet 2014, Harlan) and water. Typically, use the mice when they are 10-13 weeks of age at the time of the study. On day 0 of the experiment, randomize the mice into treatment groups (N=7/group) so each group has similar mean body weights. On day 1 and day 2, treat the animals with vehicle (1% hydroxyethylcellulose, 0.25% TWEEN™ 80, 0.05% antifoam) or test compound prepared in the vehicle as suspension at various dosages by oral gavage at 7 am and 7 pm. On day 3, fast the animals, move them into clean cages and dose with vehicle or the test compound again at 8 am by oral gavage. That same day at 1 pm, sacrifice the animals by decapitation to collect blood. For details of blood collection and plasma treatments see Blood collection and Extraction of Ghrelin from Plasma section below.
Collect approximately 600 µL blood into a pre-weighed EDTA tube containing 600 µL (defined as Vpreservative) freshly-prepared preservative (4 mM PEFABLOC® [4-(2-aminoethyl) benzenesulfonyl fluoride hydrochloride], 72 mM NaCl, 58 mM NaF, 0.032 N hydrochloric acid, pH 3.0) and mix immediately. Weigh the tube again and keep on ice. To accurately determine the exact blood volume of each sample using this blood collection procedure, the weight of the blood for each mouse is computed using the following equation: Weight of Blood = (Weight of the tube containing Blood + preservative)−; (Weight of the tube containing preservative) [formula] Blood volume(Vblood) = (Weight of blood)/1.06 [formula]
Within 15 minutes after the blood collection, samples are centrifuged at 5000 rpm at 4 °C for 8 min. Remove plasma (650 µL) to a 5 mL glass tube containing 1 N hydrochloric acid (65µL), mix and keep on ice.
AG and UAG are extracted from plasma using SEP-PAK®_C18 column to remove interference prior to performing the ELISA. The solid phase extraction of AG and UAG peptides by SEP-PAK®_C18 columns can be performed on a vacuum manifold (Waters Corp) or using a peristaltic pump. The sample SEP-PAK®_column extraction procedure is independently applied to the plasma sample obtained from each individual mouse. The general extraction protocol is described as follows.
All solutions used for the entire protocol of the SEP-PAK® column extraction should be at ice cold condition. Wet SEP-PAK®_columns (WAT054960, Waters Corp, Milford MA) with 99.9% ACN/0.1% TFA (1 mL of solution of 100 mL ACN/0.1 mL TFA). […] Once liquid is removed from the column, stop the pressure. Equilibrate the columns with 3% ACN/0.1% TFA (1 mL of 97 mL water, 3 mL ACN, 0.1 mL TFA). […] Dilute approximately 650 µL acidified plasma (defined as Vplasma added to column) to 1.4 mL ice cold 0.1% TFA. Load all diluted acidified plasma from the previous step onto the columns. […]

For `Cc1nc(C(F)(F)F)nc(N)c1CCC1CCN(C(=O)[C@H](C)NC(=O)c2ccnn2C)CC1` [Example 2, N-[(1S)-2-[4-[2-[4-Amino-6-methyl-2-(trifluoromethyl)pyrimidin-5-yl]ethyl]-1-piperidyl]-1-methyl-2-oxo-ethyl]-2-methyl-pyrazole-3-carboxamide], the “decreases plasma AG” value (0.1 mg/kg) was 40%, the “increases UAG” value (0.1 mg/kg) was 2.10 fold and the “reduction in AG to total ghrelin ratio” value (0.1 mg/kg) was 57%. For the same compound, the “AG (% of control)” value (0.1 mg/kg) was 60 ± 8 (n=7) % of control, the “AG/total-ghrelin (% of vehicle control)” value (0.1 mg/kg) was 43 ± 3 (n=7) % of vehicle control and the “UAG (% of vehicle control)” value (0.1 mg/kg) was 210 ± 43 (n=7) % of vehicle control. The “decreases plasma AG” value (0.3 mg/kg) was 60%, the “increases UAG” value (0.3 mg/kg) was 2.22 fold and the “reduction in AG to total ghrelin ratio” value (0.3 mg/kg) was 62%. For the same compound, the “AG (% of control)” value (0.3 mg/kg) was 40 ± 10 (n=7) % of control, the “AG/total-ghrelin (% of vehicle control)” value (0.3 mg/kg) was 28 ± 1 (n=7) % of vehicle control and the “UAG (% of vehicle control)” value (0.3 mg/kg) was 222 ± 54 (n=7) % of vehicle control. For the same compound, the “decreases plasma AG” value (1 mg/kg) was 56%, the “increases UAG” value (1 mg/kg) was 3.57 fold and the “reduction in AG to total ghrelin ratio” value (1 mg/kg) was 79%. For the same compound, the “AG (% of control)” value (1 mg/kg) was 44 ± 6 (n=14) % of control, the “AG/total-ghrelin (% of vehicle control)” value (1 mg/kg) was 21 ± 1 (n=14) % of vehicle control and the “UAG (% of vehicle control)” value (1 mg/kg) was 357 ± 30 (n=14) % of vehicle control. The “decreases plasma AG” value (3 mg/kg) was 63%, the “increases UAG” value (3 mg/kg) was 3.49 fold and the “reduction in AG to total ghrelin ratio” value (3 mg/kg) was 82%. The “AG (% of control)” value (3 mg/kg) was 37 ± 9.6 (n=14) % of control, the “AG/total-ghrelin (% of vehicle control)” value (3 mg/kg) was 18 ± 5 (n=14) % of vehicle control and the “UAG (% of vehicle control)” value (3 mg/kg) was 349 ± 41 (n=14) % of vehicle control. For the same compound, the “decreases plasma AG” value (10 mg/kg) was 63%, the “increases UAG” value (10 mg/kg) was 3.78 fold and the “reduction in AG to total ghrelin ratio” value (10 mg/kg) was 82%. For the same compound, the “AG (% of control)” value (10 mg/kg) was 37 ± 9.9 (n=7) % of control, the “AG/total-ghrelin (% of vehicle control)” value (10 mg/kg) was 18 ± 3 (n=7) % of vehicle control and the “UAG (% of vehicle control)” value (10 mg/kg) was 378 ± 59 (n=7) % of vehicle control.
